The text below walks through data of ChEMBL document CHEMBL1909046, “DrugMatrix in vitro pharmacology data”.

Targets include Cytochrome P450 2C19 (Homo sapiens, UniProt P33261); Cytochrome P450 2C9 (Homo sapiens, UniProt P11712); Cytochrome P450 2D6 (Homo sapiens, UniProt P10635); Cytochrome P450 2E1 (Homo sapiens, UniProt P05181); Cytochrome P450 3A4 (Homo sapiens, UniProt P08684).
The target of assay [1] is T1, Androgen receptor (Rattus norvegicus, UniProt P15207).
T1 sequence (P15207 whole entry): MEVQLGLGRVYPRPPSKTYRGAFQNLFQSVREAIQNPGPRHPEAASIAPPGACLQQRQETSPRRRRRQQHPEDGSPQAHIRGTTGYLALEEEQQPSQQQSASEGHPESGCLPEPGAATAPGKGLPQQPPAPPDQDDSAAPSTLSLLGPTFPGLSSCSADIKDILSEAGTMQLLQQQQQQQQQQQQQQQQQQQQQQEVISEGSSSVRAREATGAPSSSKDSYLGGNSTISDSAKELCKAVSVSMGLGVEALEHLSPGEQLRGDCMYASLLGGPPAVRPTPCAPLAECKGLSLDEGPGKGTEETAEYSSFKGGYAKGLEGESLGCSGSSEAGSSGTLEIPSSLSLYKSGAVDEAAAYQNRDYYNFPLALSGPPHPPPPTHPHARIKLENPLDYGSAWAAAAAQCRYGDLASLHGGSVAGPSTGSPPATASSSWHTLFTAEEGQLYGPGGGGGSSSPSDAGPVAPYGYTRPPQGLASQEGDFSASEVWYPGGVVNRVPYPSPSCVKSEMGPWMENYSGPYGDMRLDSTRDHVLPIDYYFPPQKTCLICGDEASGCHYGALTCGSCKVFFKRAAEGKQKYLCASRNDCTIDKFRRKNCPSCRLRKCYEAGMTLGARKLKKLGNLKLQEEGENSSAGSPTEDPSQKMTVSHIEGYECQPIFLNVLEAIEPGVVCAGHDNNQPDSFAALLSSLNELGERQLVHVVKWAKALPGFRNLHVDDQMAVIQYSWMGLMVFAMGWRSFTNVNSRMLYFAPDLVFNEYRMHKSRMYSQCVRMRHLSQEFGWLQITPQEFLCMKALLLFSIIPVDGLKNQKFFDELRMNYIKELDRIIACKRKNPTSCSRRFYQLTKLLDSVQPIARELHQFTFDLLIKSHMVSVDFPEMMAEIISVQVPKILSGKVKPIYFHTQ

Assay [2] has as its target Mitogen-activated protein kinase 1 (Homo sapiens, UniProt P28482). Description: DRUGMATRIX: Protein Serine/Threonine Kinase, ERK2 enzyme inhibition (substrate: Myelin Basic Protein). The note with it: Not Active = under 50% inhibition at 10 µM. Set-up: species or system Escherichia coli.
Assay [3] can be described thus: DRUGMATRIX: Tumor Necrosis Factor (TNF), Non-Selective radioligand binding (ligand: [125I] TNF-alpha). It is filed as cell membranes, Membrane. To be noted: u-937; Not Active = under 50% inhibition at 10 µM.
In the next assay the target is D(3) dopamine receptor (Homo sapiens, UniProt P35462). Description: DRUGMATRIX: Dopamine D3 radioligand binding (ligand: [3H] Spiperone). To be noted: for Ki: read-out: Ki. It is filed as cell membranes, CHO, Membrane.
Chain of D(3) dopamine receptor (P35462 whole entry): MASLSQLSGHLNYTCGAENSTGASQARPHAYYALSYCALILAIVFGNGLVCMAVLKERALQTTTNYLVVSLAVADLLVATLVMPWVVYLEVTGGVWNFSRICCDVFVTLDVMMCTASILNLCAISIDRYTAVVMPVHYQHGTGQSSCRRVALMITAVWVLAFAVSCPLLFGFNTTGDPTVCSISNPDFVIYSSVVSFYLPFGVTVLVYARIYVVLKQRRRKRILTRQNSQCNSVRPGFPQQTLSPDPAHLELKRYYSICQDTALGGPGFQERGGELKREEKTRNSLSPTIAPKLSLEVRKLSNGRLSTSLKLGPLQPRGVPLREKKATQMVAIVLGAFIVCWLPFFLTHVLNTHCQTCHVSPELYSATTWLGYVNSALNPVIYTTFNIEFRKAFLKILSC
The target of assay [4] is T1, Androgen receptor. This is another data set of the same source.
For a further assay, the target named is T2, Glucocorticoid receptor (Homo sapiens, UniProt P04150). Also: in other assays of this panel Not Active means under 50% inhibition at 10 µM.
T2 sequence (P04150 whole entry): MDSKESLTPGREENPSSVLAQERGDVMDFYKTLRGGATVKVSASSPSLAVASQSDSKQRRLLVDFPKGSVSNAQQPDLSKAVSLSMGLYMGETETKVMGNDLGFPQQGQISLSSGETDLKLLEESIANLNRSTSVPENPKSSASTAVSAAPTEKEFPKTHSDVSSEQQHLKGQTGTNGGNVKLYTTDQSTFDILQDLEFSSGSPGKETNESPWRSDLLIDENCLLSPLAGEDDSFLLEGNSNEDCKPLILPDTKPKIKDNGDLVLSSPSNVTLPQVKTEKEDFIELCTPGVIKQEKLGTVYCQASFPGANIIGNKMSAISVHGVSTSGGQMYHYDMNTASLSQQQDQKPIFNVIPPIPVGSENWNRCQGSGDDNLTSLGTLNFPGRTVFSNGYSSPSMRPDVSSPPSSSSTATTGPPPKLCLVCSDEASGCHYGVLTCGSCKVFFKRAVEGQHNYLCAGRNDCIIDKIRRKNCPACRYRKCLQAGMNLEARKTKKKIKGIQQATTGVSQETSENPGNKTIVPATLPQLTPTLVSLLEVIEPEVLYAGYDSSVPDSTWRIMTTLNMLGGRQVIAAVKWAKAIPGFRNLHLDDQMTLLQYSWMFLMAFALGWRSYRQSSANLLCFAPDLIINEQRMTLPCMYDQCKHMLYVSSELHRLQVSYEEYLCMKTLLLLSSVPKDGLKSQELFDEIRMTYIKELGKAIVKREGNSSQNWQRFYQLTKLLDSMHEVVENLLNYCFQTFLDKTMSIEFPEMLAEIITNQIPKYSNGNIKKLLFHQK
Nature of the assay: biochemical.

Chain of Cytochrome P450 2C9 (P11712 whole entry): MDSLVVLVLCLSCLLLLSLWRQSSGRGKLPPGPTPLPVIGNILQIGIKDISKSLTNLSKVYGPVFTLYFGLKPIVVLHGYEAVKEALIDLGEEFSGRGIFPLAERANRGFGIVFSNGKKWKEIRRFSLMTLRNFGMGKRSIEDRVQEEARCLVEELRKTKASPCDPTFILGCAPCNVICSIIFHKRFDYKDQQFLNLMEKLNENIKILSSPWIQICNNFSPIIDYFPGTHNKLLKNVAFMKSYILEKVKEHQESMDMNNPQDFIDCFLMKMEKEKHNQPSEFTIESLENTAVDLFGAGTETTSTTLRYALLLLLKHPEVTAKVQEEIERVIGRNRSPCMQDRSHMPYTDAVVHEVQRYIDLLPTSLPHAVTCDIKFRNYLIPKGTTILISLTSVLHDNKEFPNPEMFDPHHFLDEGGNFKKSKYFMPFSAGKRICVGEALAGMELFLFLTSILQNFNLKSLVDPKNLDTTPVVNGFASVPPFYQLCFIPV
Chain of Cytochrome P450 2C19 (P33261 whole entry): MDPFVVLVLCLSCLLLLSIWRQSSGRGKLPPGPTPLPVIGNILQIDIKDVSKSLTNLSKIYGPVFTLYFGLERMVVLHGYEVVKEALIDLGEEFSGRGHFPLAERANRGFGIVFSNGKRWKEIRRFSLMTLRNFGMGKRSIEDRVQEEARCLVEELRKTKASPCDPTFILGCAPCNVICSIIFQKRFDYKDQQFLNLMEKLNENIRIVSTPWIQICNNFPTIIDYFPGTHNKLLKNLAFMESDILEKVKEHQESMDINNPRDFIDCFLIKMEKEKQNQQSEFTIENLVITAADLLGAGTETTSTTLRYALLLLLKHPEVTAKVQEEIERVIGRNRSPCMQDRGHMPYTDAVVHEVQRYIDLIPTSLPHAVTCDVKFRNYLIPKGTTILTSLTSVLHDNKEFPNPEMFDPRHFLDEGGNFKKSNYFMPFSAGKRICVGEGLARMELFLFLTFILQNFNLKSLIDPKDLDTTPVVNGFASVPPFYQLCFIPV
Chain of Cytochrome P450 2D6 (P10635 whole entry): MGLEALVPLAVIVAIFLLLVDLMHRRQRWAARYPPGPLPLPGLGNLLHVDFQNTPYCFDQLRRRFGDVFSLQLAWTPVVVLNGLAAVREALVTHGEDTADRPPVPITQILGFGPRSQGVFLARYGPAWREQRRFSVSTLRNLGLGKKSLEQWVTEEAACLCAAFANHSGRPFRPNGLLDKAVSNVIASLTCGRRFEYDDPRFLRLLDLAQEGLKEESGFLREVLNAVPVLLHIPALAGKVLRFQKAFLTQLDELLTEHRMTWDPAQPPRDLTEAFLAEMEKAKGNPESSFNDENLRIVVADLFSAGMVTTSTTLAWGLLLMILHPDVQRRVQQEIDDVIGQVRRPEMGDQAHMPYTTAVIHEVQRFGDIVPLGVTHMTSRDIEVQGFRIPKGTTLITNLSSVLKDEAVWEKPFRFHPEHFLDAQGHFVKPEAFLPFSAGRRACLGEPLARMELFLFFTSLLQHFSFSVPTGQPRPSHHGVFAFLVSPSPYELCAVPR
Chain of Mitogen-activated protein kinase 1 (P28482 whole entry): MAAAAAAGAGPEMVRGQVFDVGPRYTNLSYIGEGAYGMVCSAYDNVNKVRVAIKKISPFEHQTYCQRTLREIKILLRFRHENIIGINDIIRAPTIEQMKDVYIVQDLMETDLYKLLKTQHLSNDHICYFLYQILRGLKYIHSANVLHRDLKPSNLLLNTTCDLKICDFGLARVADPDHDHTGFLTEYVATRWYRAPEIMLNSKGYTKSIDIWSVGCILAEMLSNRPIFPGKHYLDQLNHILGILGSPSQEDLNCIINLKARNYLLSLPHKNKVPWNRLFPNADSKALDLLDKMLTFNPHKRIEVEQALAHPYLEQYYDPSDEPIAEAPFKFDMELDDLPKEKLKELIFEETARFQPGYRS
Chain of Cytochrome P450 2E1 (P05181 whole entry): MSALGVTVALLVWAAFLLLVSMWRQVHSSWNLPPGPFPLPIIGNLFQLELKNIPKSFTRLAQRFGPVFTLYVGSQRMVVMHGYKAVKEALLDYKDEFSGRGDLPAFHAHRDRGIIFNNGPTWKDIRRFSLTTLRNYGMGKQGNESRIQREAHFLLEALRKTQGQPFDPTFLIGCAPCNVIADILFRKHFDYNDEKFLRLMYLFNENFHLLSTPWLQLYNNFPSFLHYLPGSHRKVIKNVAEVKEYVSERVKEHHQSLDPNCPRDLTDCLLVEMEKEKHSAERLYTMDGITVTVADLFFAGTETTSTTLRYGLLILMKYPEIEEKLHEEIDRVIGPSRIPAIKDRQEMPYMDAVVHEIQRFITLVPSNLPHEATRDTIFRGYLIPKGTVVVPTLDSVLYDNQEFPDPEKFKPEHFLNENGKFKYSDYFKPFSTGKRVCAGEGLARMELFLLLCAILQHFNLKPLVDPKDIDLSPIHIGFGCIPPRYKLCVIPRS
Chain of Cytochrome P450 3A4 (P08684 whole entry): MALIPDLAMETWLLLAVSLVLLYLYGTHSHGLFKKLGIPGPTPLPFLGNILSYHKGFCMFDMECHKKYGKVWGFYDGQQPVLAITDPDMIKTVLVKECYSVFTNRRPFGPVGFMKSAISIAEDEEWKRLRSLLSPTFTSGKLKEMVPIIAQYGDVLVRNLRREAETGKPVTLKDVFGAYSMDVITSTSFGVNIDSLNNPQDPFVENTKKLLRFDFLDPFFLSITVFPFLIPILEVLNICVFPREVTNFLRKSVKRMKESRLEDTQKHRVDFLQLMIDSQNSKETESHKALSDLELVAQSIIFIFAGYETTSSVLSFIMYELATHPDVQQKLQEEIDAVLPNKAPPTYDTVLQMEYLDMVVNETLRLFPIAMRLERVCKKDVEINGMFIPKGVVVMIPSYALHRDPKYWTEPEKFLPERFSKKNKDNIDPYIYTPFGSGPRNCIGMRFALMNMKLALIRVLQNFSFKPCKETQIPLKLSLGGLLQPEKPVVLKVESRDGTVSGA

The IC50 is the midpoint of a concentration-inhibition curve. Broadly, the Ki is the equilibrium dissociation constant of an inhibitor or competing ligand from its target. With `O=C(c1ccccc1F)N1CCC(Cc2ccccc2)CC1`, the concentration for half-maximal inhibition (IC50) entry at Androgen receptor [1] was “Not Active”; against Cytochrome P450 2C19, 500 nM; against Cytochrome P450 2C9 it was 2 µM; in assay [2], “Not Active”; in assay [3] it was “Not Active”; at D(3) dopamine receptor (cho), “Not Active”. The Ki entry in assay [3] is on record as “Not Active”.
Consider `Cc1c(O)cccc1C(=O)N[C@@H](CSc1ccccc1)[C@H](O)CN1C[C@H]2CCCC[C@H]2C[C@H]1C(=O)NC(C)(C)C`, for which the IC50 against Androgen receptor [4] is 36.4 µM; in assay [2] it was “Not Active”; in assay [3] it was “Not Active”; on D(3) dopamine receptor (cho), “Not Active”. Moreover, the Ki on Androgen receptor [4] is 24.3 µM; in assay [3], “Not Active”.
As for `CC(O)COC[C@H]1O[C@@H]2O[C@H]3[C@H](O)[C@@H](O)[C@@H](O[C@H]4[C@H](O)[C@@H](O)[C@@H](O[C@H]5[C@H](O)[C@@H](O)[C@@H](O[C@H]6[C@H](O)[C@@H](O)[C@@H](O[C@H]7[C@H](O)[C@@H](O)[C@@H](O[C@H]8[C@H](O)[C@@H](O)[C@@H](O[C@H]1[C@H](O)[C@H]2O)O[C@@H]8COCC(C)O)O[C@@H]7COCC(C)O)O[C@@H]6COCC(C)O)O[C@@H]5COCC(C)O)O[C@@H]4COCC(C)O)O[C@@H]3COCC(C)O` (stereo partly drawn) [2-HYDROXYPROPYL-BETA-CYCLODEXTRIN], the concentration for half-maximal inhibition (IC50) on Androgen receptor [4] is 2.16 µM; in [2], “Not Active”; in assay [3], “Not Active”; at D(3) dopamine receptor (cho), “Not Active”. Besides, the Ki on Androgen receptor [4] is 1.44 µM; in assay [3], “Not Active”.
As to `CC[C@H]1[C@@H]2C[C@H]3[C@@H]4N(C)c5ccccc5[C@]45C[C@@H]([C@@H]2[C@H]5O)N3[C@@H]1O` [AJMALINE], the IC50 entry in [2] was “Not Active”; in [3], “Not Active”; at D(3) dopamine receptor (cho), “Not Active”; at Cytochrome P450 2D6, 1000 nM. Besides, the Ki entry in assay [3] was “Not Active”.
In the case of `ClC(Cl)(Cl)Cl` [CARBON TETRACHLORIDE], the IC50 entry in [2] is “Not Active”; in assay [3] it was “Not Active”; against Cytochrome P450 2E1, 11 µM; on D(3) dopamine receptor (cho) it was “Not Active”. Further, the Ki entry in [3] was “Not Active”.
Turning to `CN1CCN(C(c2ccccc2)c2ccccc2)CC1` [CYCLIZINE], the IC50 result was “Not Active” at Androgen receptor [1]; “Not Active” in assay [2]; “Not Active” in assay [3]; 2990 nM at D(3) dopamine receptor (read-out: IC50); 6220 nM against Cytochrome P450 2D6. In addition, the Ki entry in [3] is “Not Active”; on D(3) dopamine receptor, 1020 nM.
On to `CC(C)C[C@H]1C(=O)N2CCC[C@H]2[C@]2(O)O[C@](NC(=O)[C@@H]3C=C4c5cccc6[nH]cc(c56)C[C@H]4N(C)C3)(C(C)C)C(=O)N12` [ERGOCRYPTINE], for which the IC50 result is “Not Active” against Androgen receptor [1]; 600 nM at Cytochrome P450 3A4; 6 µM against Cytochrome P450 2C9; “Not Active” in [2]; “Not Active” in assay [3]; 0.589 nM at D(3) dopamine receptor (read-out: IC50). Also, the Ki entry in assay [3] is “Not Active”; at D(3) dopamine receptor, 0.2 nM.
Turning to `C[C@]12CC[C@@H]3c4ccc(O)cc4CC[C@H]3[C@@H]1C[C@@H](O)[C@@H]2O` [ESTRIOL], the IC50 entry in assay [2] was “Not Active”; in assay [3] it was “Not Active”; at Glucocorticoid receptor, 39300 nM; at D(3) dopamine receptor (cho) it was “Not Active”. Further, the Ki result in assay [3] was “Not Active”; at Glucocorticoid receptor, 17900 nM.
For the molecule `C#C[C@]1(O)CC[C@H]2[C@@H]3CCC4=CC(=O)CC[C@]4(C)[C@H]3CC[C@@]21C` [ETHISTERONE], the IC50 entry in assay [2] was “Not Active”; in [3], “Not Active”; at Glucocorticoid receptor, 209 nM; at D(3) dopamine receptor (cho) it was “Not Active”. Moreover, the Ki entry is “Not Active” in [3] and 95 nM on Glucocorticoid receptor.
For `CC(=O)OCC(=O)[C@@]12OC(C)(C)O[C@@H]1C[C@H]1[C@@H]3C[C@H](F)C4=CC(=O)C=C[C@]4(C)[C@@]3(F)[C@@H](O)C[C@@]12C` [FLUOCINONIDE], the IC50 entry in assay [2] was “Not Active”; in [3] it was “Not Active”; against Glucocorticoid receptor, 5.26 nM; on D(3) dopamine receptor (cho) it was “Not Active”. For the same molecule, the Ki entry in assay [3] is “Not Active”; at Glucocorticoid receptor it was 2.39 nM.
In the case of `COc1ccc2c(c1OC)C(=O)O[C@@H]2[C@H]1c2c(cc3c(c2OC)OCO3)CCN1C` [NOSCAPINE], the IC50 on Cytochrome P450 2C19 is 400 nM; at Cytochrome P450 2C9 it was 8.18 µM; in assay [2] it was “Not Active”; in assay [3], “Not Active”; on D(3) dopamine receptor (cho) it was “Not Active”. In addition, the Ki result in assay [3] is “Not Active”.
For the molecule `NNCCc1ccccc1` [PHENELZINE], the IC50 against Cytochrome P450 2C19 is 800 nM; against Cytochrome P450 2C9, 4 µM; in [2], “Not Active”; in assay [3], “Not Active”; on D(3) dopamine receptor (cho), “Not Active”; against Cytochrome P450 2D6, 1000 nM. Further, in assay [3], the inhibition constant Ki result was “Not Active”.
Turning to `C[C@]12C=CC(=O)C=C1CC[C@H]1[C@@H]3C[C@@H](O)[C@](O)(C(=O)CO)[C@@]3(C)C[C@H](O)[C@@]12F` [TRIAMCINOLONE], the IC50 result in assay [2] is “Not Active”; in [3] it was “Not Active”; at Glucocorticoid receptor, 58 nM; at D(3) dopamine receptor (cho), “Not Active”. In addition, the Ki entry in assay [3] is “Not Active”; on Glucocorticoid receptor it was 26 nM.
